Laboratory results from patent US6143763A, “Carbostyril derivatives” (D. Western Therapeutics Institiute, priority 1995, dated 2000).

How the values were obtained:
[1] = tested on: platelet aggregation (collagen); experiment: Platelet aggregation inhibitory activity, collagen-induced (Born's turbidimetry, rabbit PRP); assay type: cell-based, male rabbit (NZW); settings: Oryctolagus cuniculus, collagen 20 μg/ml final, 37° C.
Method: (§1) Pharmacological Experiment 1 Platelet aggregation inhibitory activity
(§2) (1) Preparation of platelet rich plasma (PRP):
(§3) The blood was collected from the carotid of a male rabbit without anesthesia (NZW species, body weight; 2-3 kg) with mixing thereof with 1/10 volume of citric acid. The blood thus obtained was separated and put into plastic test tubes (each about 7 ml), and centrifuged at 900 rpm for 15 minutes at room temperature to give a turbid supernatant as a platelet rich plasma (PRP). The residue from which PRP is separated was centrifuged at 3000 rpm for 10 minutes, and the supernatant was collected as a platelet poor plasma (PPP). The PRP was diluted with PPP so that the concentration thereof was adjusted to […], and used in the platelet aggregation inhibitory activity test.
(§4) (2) Method for platelet aggregation inhibitory activity test:
(§5) The platelet aggregation was tested according to Born's turbidimetry. That is, a test compound was dissolved in dimethylformamide, and the test compound solution (1 μl) thus obtained was put into a cuvette, and thereto was further added PRP (200 μl). Immediately thereafter, the cuvette was set into an apparatus for determining platelet aggregation activity, PAM-8T (manufactured by Mevanix Inc.), and the mixture was incubated at 37° C. Precisely three minutes thereafter, a solution of adenosine diphosphate (ADP, PA test ADP [MCM], purchased by MC Medical Ltd.) in physiological saline solution or a collagen solution (Collagenreagent Horm, purchased by MC Medical Ltd.) (20 μl) was added thereto. The final concentration of the ADP solution or the collagen solution was 7.5 μM or 20 μg/ml, respectively.
(§6) The maximum aggregation rate and the aggregation inhibitory rate were calculated by the following equations. [formula]
(§7) IC50, which is a concentration of the test compound being required to inhibit the platelet aggregation reaction by 50%, was determined from the aggregation inhibitory rates at two different concentrations of a test compound.

[2] = tested on: platelet aggregation (ADP); experiment: Platelet aggregation inhibitory activity, ADP-induced (Born's turbidimetry, rabbit PRP); assay type: cell-based, male rabbit (NZW); settings: Oryctolagus cuniculus, ADP 7.5 μM final, 37° C.
Method: as §1, §2, §3, §4, §5, §6, §7

[3] = tested on: death induced by pulmonary infarction in mice; experiment: Antithrombotic activity: inhibition of death by collagen-induced pulmonary infarction in mice; assay type: in vivo, male ICR mice; settings: Mus musculus, 1 h; 30 mg/kg oral, 10 minutes before i.v. collagen; lethality in an hour; read-out: Pulmonary infarction inhibitory activity
Excerpt: Pharmacological Experiment 2 Antithrombotic activity
Antithrombotic activity of the test compounds was estimated by an inhibitory activity of the test compound by oral administration against death induced by pulmonary infarction in mice which was introduced by intravenous administration of collagen (pulmonary infarction inhibitory activity).
Male ICR mice (5-week old, body weight; about 25 g) was fasted overnight, and separated into groups (15 mice per each group) and numbered. A test compound solution, which was prepared by suspending a test compound in 1% hydroxypropylmethyl cellulose 2910 TC-5 (HPMC, manufactured by Shin-etsu Chemical Co., Ltd.), was orally administered to the mice, and 10 minutes thereafter, a collagen solution (the method for preparation thereof and a dose thereof are explained hereafter) was injected to the mice at the tail vein at the constant rate. The lethality of the mice was determined by the number of mice which were died in an hour after the administration of collagen solution. The antithrombotic activity of the test compound was estimated by the inhibitory rate (%) of the lethality of the mice. The collagen solution was prepared by dissolving collagen (Type III, manufactured by Sigma Chemical Ltd.) in 0.05 M acetic acid solution containing 2 mM calcium chloride and 5% glucose at 4° C. so that the final concentration of collagen was adjusted to 2.5 mg/ml, and then the pH value thereof was adjusted to pH 7.4 with sodium hydroxide the day before the experiment. The collagen solution was incubated with stirring at 37° C. for two hours, and then further stirred at room temperature overnight. Just before the experiment, the pH value of the collagen solution was adjusted again to pH 7.4. The amount of the collagen solution which was injected at the tail vein was previously determined so that the lethality by pulmonary infarction induced thereby became about 75%.

[4] = tested on: left common carotid artery injured by balloon; experiment: Intima thickening inhibitory activity after balloon injury (3H-thymidine in carotid artery); assay type: in vivo, male SD rats; settings: Rattus norvegicus, oral
Method: Pharmacological Experiment 3 Intima thickening inhibitory activity
Male SD rats (6-week old) were separated into groups (8 rats per each group) and numbered. A test compound solution, which was prepared by suspending a test compound in 1% hydroxypropylmethyl cellulose 2910 TC-5 (HPMC, manufactured by Shin-etsu Chemical Co., Ltd.) was orally administered to the rats. In the control group, 1% HPMC solution was orally administered instead of the test compound solution. One or two hours thereafter, two french balloon catheters (manufactured by Baxter Travenol Inc.) were inserted into the left common carotid artery of the rats, and the artery was injured by abrading five times with a balloon. The day of balloon abrasion was considered as Day 0. On the following day (Day 1), a test compound was orally administered to the rats two times a day (in the morning and in the evening). On Day 2, 1.48 MBq/ml of ^3 H-thymidine (dose: 5 ml/kg, manufactured by NEN Research Products, Ltd.) was injected at the tail vein of the rats about one hour after the administration of the test compound so that the time after the balloon injury was fixed to the same in each rat. Precisely 45 minutes after the injection of ^3 H-thymidine at the tail veil, the common carotid artery of the rats was taken out.
In the test compound-treated group, only the left common carotid artery which was injured by balloon was taken out, and in the control group, both the left and right common carotid arteries were taken out. The common carotid artery thus obtained was cut to pieces of exact 1 cm long, and the unnecessary portions such as the outer membrane or the nerves were completely removed. The common carotid artery was put into a glass vial, and thereto was added a 0.5 N sodium hydroxide (0.5 ml), and the mixture was incubated at 37° C. overnight to be solubilized. The mixture was neutralized with a 5 N hydrochloric acid (0.05 ml), and thereto was further added an aqueous hydrogen peroxide solution (0.1 ml). Aquasol II (10 ml, manufactured by Du Pont Co.) was added thereto, and the mixture was well stirred and then allowed to stand for 30 minutes. The radioactivity of tritium in the mixture was counted by liquid scintillation counter. The intima thickening inhibitory activity of the test compound was calculated by the following equation. [formula] L (c): The amount of tritium in the left common carotid artery in the control group (dpm)
R (c): The amount of tritium in the right common carotid artery in the control group (dpm)
L: The amount of tritium in the left common carotid artery in the test compound-treated group (dpm)

[5] = target: T1, cGMP-inhibited cAMP phosphodiesterase (PDE3) (Homo sapiens, UniProt Q14432); experiment: cGMP-inhibited cAMP phosphodiesterase (PDE3) inhibitory activity; assay type: biochemical; settings: 0.4 μM [8-3H]cAMP, pH 8.0, 30° C., 15 minutes; recombinant enzyme from Sf9; read-out: PDE inhibitory activity IC50
T1 construct: made in house; host or cells: insect cell Sf9, baculovirus expression system
T1 sequence (Q14432 whole entry): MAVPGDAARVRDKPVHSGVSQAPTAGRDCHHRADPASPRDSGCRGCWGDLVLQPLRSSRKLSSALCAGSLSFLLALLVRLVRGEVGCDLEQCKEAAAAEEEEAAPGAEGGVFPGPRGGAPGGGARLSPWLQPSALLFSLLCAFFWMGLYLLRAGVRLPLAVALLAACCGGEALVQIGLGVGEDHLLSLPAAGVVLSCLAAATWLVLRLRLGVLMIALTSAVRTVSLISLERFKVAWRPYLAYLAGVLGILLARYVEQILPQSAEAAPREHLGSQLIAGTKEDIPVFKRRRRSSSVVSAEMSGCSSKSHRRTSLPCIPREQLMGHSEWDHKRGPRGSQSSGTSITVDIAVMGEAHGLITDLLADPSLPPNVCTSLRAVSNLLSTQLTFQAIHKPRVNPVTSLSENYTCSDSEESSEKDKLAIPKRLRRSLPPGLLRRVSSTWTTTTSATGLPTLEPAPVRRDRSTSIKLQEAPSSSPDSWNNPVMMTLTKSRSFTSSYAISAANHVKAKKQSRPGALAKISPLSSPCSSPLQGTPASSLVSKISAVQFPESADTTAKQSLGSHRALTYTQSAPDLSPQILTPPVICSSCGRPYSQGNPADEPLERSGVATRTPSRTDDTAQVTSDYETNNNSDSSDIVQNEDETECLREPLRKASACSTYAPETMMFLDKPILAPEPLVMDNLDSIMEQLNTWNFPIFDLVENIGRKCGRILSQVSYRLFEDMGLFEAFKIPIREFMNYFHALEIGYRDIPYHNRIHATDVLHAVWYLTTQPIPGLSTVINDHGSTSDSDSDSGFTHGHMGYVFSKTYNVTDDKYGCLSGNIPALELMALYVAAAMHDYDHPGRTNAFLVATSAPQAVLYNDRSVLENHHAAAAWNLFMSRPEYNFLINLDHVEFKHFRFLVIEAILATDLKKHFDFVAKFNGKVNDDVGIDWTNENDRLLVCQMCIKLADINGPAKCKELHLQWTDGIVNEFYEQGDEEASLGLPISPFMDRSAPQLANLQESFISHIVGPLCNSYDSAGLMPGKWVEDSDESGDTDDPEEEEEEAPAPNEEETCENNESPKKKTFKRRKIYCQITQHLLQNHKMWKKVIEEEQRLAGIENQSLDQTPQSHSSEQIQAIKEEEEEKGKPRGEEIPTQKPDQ

| Compound | IC50 [1] | IC50 [2] | inhibition in vivo at 30 mg/kg [3] | inhibition in vivo at 10 mg/kg [4] | inhibition in vivo at 30 mg/kg [4] | IC50 [5] |
| --- | --- | --- | --- | --- | --- | --- |
| O=C(NCCCOc1ccc2[nH]c(=O)ccc2c1)N(C1CC1)[C@@H]1CCCC[C@H]1O (relative stereo) [Ex. 6, 6-{3-[3-(trans-2-hydroxycyclohexyl)-3-cyclopropylureido]propoxy}carbostyril] | 1900 nM | 1800 nM | 100% | 31.4% |  |  |
| CC(=O)O[C@@H]1CCCC[C@H]1N(C(=O)NCCCOc1ccc2[nH]c(=O)ccc2c1)C1CC1 (relative stereo) [Ex. 7, 6-{3-[3-(trans-2-acetyloxycyclohexyl)-3-cyclopropylureide]propoxy}carbostyril] | 2100 nM | 18200 nM | 67% |  | 15.2% |  |
| O=C(NCCCOc1ccc2[nH]c(=O)ccc2c1)N(C1CCCCCC1)[C@@H]1CCCC[C@H]1O (relative stereo) [Ex. 18] | 30 nM | 120 nM | 69% |  | 19% |  |
| O=C(NCCCOc1ccc2[nH]c(=O)ccc2c1)N(C1CCCCCCC1)[C@@H]1CCCC[C@H]1O (relative stereo) [Ex. 24] | 30 nM | 80 nM | 100% |  |  | 0.647 nM |
| O=C1CCc2cc(OCCCNC(=O)N(C3CC3)[C@@H]3CCCC[C@H]3O)cc(F)c2N1 (relative stereo) [Ex. 25] | 3900 nM | 4650 nM | 100% |  |  |  |
| O=C(NCCCOc1cc(F)c2[nH]c(=O)ccc2c1)N(C1CC1)[C@@H]1CCCC[C@H]1O (relative stereo) [Ex. 26] | 3030 nM | 450 nM | 85% |  | 16% | 74.6 nM |
| COc1cc(OCCCNC(=O)N(C2CC2)[C@@H]2CCCC[C@H]2O)cc2ccc(=O)[nH]c12 (relative stereo) [Ex. 27] | 31600 nM | 31600 nM | 80% |  |  | 2180 nM |
| O=C(NCCOc1ccc2[nH]c(=O)ccc2c1)N(C1CC1)[C@@H]1CCCC[C@H]1O (relative stereo) [Ex. 30] | 2940 nM | 3670 nM | 100% |  |  |  |
| O=C(NCCCOc1ccc2nc(O)ccc2c1)N(C1CC1)[C@H]1CCCC[C@@H]1O [Ex. 8, (S,S)-(+)-6-{3-[3-(2-Hydroxycyclohexyl)-3-cyclopropylureido]propoxy}-carbostyril] | 2000 nM | 2100 nM | 100% |  | 13.3% | 113 nM |
| O=C(NCCCOc1ccc2[nH]c(=O)ccc2c1)N(C1CC1)[C@@H]1CCCC[C@H]1O [Ex. 9, (R,R)-(-)-6-{3-[3-(trans-2-hydroxycyclohexyl)-3-cyclopropylureido]propoxy}carbostyril] | 2000 nM | 1900 nM | 100% | 26.8% |  | 93 nM |
| CCC(CN(C(=O)NCCCOc1ccc2[nH]c(=O)ccc2c1)C1CCCCC1)OC(C)=O (stereo not drawn) [Ex. 11] | 2100 nM | 600 nM | 80% |  | 33% |  |
| CCC(O)CN(C(=O)N(C)CCCOc1ccc2[nH]c(=O)ccc2c1)C1CCCCC1 (stereo not drawn) [Ex. 13, 6-{3-[1-methyl-3-cyclohexyl-3-(2-hydroxybutyl)ureido]propoxy}carbostyril] | 2000 nM | 2100 nM | 58% |  | 16.6% |  |
| CCC(CN(C(=O)N(C)CCCOc1ccc2[nH]c(=O)ccc2c1)C1CCCCC1)OC(C)=O (stereo not drawn) [Ex. 14, 6-{3-[1-methyl-3-cyclohexyl-3-(2-acetyloxybutyl)ureido]propoxy}carbostyril] | 2200 nM | 1500 nM | 66% |  | 15.7% |  |
| CCN(CCCOc1ccc2[nH]c(=O)ccc2c1)C(=O)N(C)C1CCCCC1 [Ex. 15] | 16100 nM | 15200 nM | 86% |  | 11.9% |  |
| C=CCN(CCCOc1ccc2[nH]c(=O)ccc2c1)C(=O)N(C)C1CCCCC1 [Ex. 16, 6-[3-(3-Cyclohexyl-3-methyl-1-allylureido)propoxy]carbostyril] | 20000 nM | 4600 nM | 77% |  | 33.3% |  |
| CCOC(CC)CN(C(=O)NCCCOc1ccc2[nH]c(=O)ccc2c1)C1CCCCC1 (stereo not drawn) [Ex. 19] | 590 nM | 180 nM | 84% |  | 23.4% |  |
| CCC(CN(C(=O)NCCCOc1ccc2[nH]c(=O)ccc2c1)C1CCCCC1)OCc1ccccc1 (stereo not drawn) [Ex. 20] | 290 nM | 220 nM | 66% |  |  |  |
| CC(O)CN(CCCOc1ccc2[nH]c(=O)ccc2c1)C(=O)N(C)C1CCCCC1 (stereo not drawn) [Ex. 21] | 3250 nM | 2080 nM | 59% |  |  |  |
| CN(C(=O)N(CCCO)CCCOc1ccc2[nH]c(=O)ccc2c1)C1CCCCC1 [Ex. 22] | 2800 nM | 1310 nM | 69% |  |  |  |
| CCCN(CCCOc1ccc2[nH]c(=O)ccc2c1)C(=O)N(C)C1CCCCC1 [Ex. 23, 6-[3-(3-cyclohexyl-3-methyl-1-propylureido)propoxy]carbostyril] | 2510 nM | 13400 nM | 90% |  |  |  |
| O=C(NCCCOc1ccc2[nH]c(=O)ccc2c1)NN(C1CCCCC1)C1CC1 [Ex. 29] | 30 nM | 10 nM | 91% |  | 29.3% |  |
| O=C(NCCCCOc1ccc2[nH]c(=O)ccc2c1)N(C1CC1)[C@@H]1CCCC[C@H]1O [Ex. 31] | 2570 nM | 15700 nM | 48% |  |  |  |
